This is an account of results in patent publication US11512085B2, “Heteroaryl compound having drug activity” (SHANGHAI DUDE MEDICAL TECHNOLOGY CO., LTD, priority 2017, dated 2022).

Bounds are passed on as bounds.

Data set [1] can be described thus: Rat liver microsome stability test. Type of data set: in vitro ADME. The following applies: for Remaining (*NCF = 60 min): RLM 0.5, 60 min, no co-factor; for Remaining (T = 60 min): RLM 0.5, 60 min with NADPH regenerating system; for half-life at 1 µM / microsomal CLint at 1 µM / CLint scaled at 1 µM: rat, liver microsomes, pH 7.4; for half-life at 1 µM: RLM 0.5 (0.5 mg protein/mL); for microsomal CLint at 1 µM / CLint scaled at 1 µM: RLM 0.5; for microsomal CLint at 1 µM: read-out: CLint(mic); for CLint scaled at 1 µM: scaled from CLint(mic). How it is done:
(§1) Preparation of Buffer Solution:
(§2) 1. 100 mM potassium phosphate buffer solution, pH of 7.4
(§3) Preparation of Test Compound Solution:
(§4) 1. A test compound solution (10 mM, 5 μL) was diluted with a methanol solution (495 μL), and a 100 μM solution was prepared;
(§5) 2. Preparation of a working solution: the above solution (50 μL) was diluted with the potassium phosphate buffer solution (450 μL, 100 mM) so as to obtain diluents (10 μM).
(§6) NADPH Regeneration System (Final Concentration 1 Unit/mL of Isocitrate Dehydrogenase):
(§7) 1. beta-NADP, supplier: sigma Cat. No. N0505
(§8) 3. isocitrate dehydrogenase, supplier: sigma Cat. No. 12002
(§9) Cold acetonitrile containing 100 ng/mL of tolbutamide and 100 ng/mL of labetalol serves as an internal standard
(§10) 1. a 10 μL/well of working solution was added into plates (T0, T5, T10, T20, T30, T60, NCF60) beyond the blank;
(§11) 2. a 80 μL/well of microsome solution was added, and incubation was performed at 37° C. for 10 min;
(§12) 3. a 10 μL of 100 mM phosphate buffer solution was added into each well of an NCF60 plate, the plate was placed in a warm bath at 37° C., and timing started;
(§13) 4. a 10 μL/well of NADPH regeneration system was added after preheating, and a reaction started;
(§14) 5. incubation was performed at 37° C., and timing started
(§15) 6. a 300 μL/well of stop solution was added (4° C., containing 100 ng/mL of tolbutamide and 100 ng/mL of labetalol) to end the reaction;
(§16) 7. the plate was shaken for 10 min;
(§17) 8. centrifugation was performed at 4° C. at a rotation speed of 4000 rpm; and
(§18) 9. sample LC/MS/MS detection was performed.
(§19) Data Analysis Use Equation of First Order Kinetics to Calculate t½ and Clint(Mic): […]
(§20) equation of first order kinetics: […]
Background: Liver microsomes are a subcellular fraction often used to study metabolism.

Another data set addresses LynA (Homo sapiens, UniProt P07948). As to the kind of experiment: Btk selectivity over LynA (same kinase method, Btk replaced). Type of data set: biochemical. The conditions noted are these: ratio of IC50 values. Here is the method: (§21) Other kinases (e.g., inhibitory activity of Lck and LynA is determined by replacing the Btk with various kinases and performing operations the same as that in the above method).

The nature of data set [2]: Human liver microsome stability test. The conditions noted are these: for Remaining (*NCF = 60 min): HLM 0.5, 60 min, no co-factor; for Remaining (T = 60 min): HLM 0.5, 60 min with NADPH regenerating system; for half-life at 1 µM / microsomal CLint at 1 µM / CLint scaled at 1 µM: human, liver microsomes, pH 7.4; for half-life at 1 µM: HLM 0.5 (0.5 mg protein/mL); for microsomal CLint at 1 µM / CLint scaled at 1 µM: HLM 0.5; for microsomal CLint at 1 µM: read-out: CLint(mic); for CLint scaled at 1 µM: scaled from CLint(mic). Type of data set: in vitro ADME. How it is done: as §1, §2, §3, §4, §5, §6, §7, §8, §9, §10, §11, §12, §13, §14, §15, §16, §17, §18, §19, §20

The target of the next data set is Lck (Homo sapiens, UniProt P06239). Nature of the data set: Btk selectivity over Lck (same kinase method, Btk replaced). Type of data set: biochemical. The following applies: ratio of IC50 values. Here is the method: as §21
Lck, sequence (P06239 whole entry): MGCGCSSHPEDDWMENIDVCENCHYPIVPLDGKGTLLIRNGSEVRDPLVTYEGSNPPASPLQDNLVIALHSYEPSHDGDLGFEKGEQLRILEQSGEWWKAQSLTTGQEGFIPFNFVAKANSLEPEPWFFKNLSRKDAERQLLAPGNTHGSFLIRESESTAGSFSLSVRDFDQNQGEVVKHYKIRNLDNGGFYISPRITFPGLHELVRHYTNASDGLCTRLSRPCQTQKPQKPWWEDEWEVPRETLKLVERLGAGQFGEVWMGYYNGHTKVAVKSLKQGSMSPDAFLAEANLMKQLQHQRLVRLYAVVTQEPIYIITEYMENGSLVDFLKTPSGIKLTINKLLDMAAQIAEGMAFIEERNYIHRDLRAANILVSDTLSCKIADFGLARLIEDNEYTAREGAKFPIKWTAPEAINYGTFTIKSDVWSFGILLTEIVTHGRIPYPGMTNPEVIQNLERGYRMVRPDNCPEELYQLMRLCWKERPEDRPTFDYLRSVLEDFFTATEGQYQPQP
The next data set deals with Btk (Homo sapiens, UniProt Q06187). As to the kind of experiment: Determination of Btk enzyme inhibitory activity. Type of data set: biochemical. The conditions noted are these: 2 nM BTK. Here is the method:
Determination of Btk Enzyme Inhibitory Activity
Buffer solution: 50 mM Hepes pH 7.0, 0.1 mM Orthovanadate, 5 mM MgCl2, 0.01% of BSA;
1 mM TK-peptide, […], 50 nM SEB;
Pre-incubation for 15 minutes;
Reaction at 23° C. for 90 minutes;
Color Development Reaction:
Developing buffer solution: 50 mM Hepes pH8.0, 0.8 M KF, 20 mM EDTA, 0.01% BSA;
Reaction at 23° C. for 60 minutes;

The conditions of data set [3]: People; FDA data; cited from earlier work.

Btk, sequence (Q06187 whole entry): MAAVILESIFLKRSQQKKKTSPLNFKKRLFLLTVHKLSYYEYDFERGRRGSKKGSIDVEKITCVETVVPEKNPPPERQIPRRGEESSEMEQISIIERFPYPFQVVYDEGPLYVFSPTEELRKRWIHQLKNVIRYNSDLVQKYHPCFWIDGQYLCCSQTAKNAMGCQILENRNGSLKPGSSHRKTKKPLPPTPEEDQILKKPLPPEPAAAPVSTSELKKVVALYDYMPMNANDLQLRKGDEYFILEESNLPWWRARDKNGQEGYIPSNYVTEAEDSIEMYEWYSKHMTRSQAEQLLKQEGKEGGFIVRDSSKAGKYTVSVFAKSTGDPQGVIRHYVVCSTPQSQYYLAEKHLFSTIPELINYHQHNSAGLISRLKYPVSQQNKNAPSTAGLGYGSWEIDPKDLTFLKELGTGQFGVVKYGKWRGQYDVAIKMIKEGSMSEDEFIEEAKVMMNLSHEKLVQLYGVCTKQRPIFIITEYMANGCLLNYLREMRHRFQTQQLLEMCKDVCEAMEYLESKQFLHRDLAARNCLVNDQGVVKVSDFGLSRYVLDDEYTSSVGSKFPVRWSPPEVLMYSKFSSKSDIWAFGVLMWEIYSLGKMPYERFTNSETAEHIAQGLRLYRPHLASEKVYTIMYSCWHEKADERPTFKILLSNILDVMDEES
LynA, sequence (P07948 whole entry): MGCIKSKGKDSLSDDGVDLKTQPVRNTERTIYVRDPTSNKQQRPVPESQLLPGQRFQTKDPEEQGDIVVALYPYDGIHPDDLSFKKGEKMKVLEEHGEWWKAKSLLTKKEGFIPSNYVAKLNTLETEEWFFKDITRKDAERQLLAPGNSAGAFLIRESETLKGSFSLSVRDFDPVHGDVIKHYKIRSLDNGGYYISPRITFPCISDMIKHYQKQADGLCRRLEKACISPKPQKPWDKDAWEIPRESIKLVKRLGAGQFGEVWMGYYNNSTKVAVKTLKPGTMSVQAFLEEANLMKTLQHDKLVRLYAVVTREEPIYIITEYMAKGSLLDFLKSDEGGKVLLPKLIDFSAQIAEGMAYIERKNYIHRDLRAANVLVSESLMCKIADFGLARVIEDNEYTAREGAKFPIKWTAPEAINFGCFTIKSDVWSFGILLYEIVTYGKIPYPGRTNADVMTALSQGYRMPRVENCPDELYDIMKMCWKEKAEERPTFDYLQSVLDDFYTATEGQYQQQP

With `C=CC(=O)N(C)N1CCCC(n2nc(-c3ccc(Oc4ccccc4)cc3)c3c(N)ncnc32)C1` (stereo not shown) [Embodiment 8], in data set [1], the “Remaining (*NCF = 60 min)” value turned out to be 111.2%; the “Remaining (T = 60 min)” value is 0.2%; the half-life (in general, the time needed for the level to fall by half in the phase considered) at 1 µM worked out at 3.8 min; the microsomal CLint at 1 µM turned out to be 366 µL/min/mg. Also, the CLint scaled (commonly the rate of metabolic loss divided by the concentration) at 1 µM in data set [1] was determined as 658 mL/min/kg. Further, the “LynA[IC50]/Btk[IC50]” value at LynA is on record as 62.5. In data set [2], the “Remaining (*NCF = 60 min)” value amounted to 105.8%, the “Remaining (T = 60 min)” value is 0.0%, the half-life at 1 µM stood at 3.7 min and the microsomal CLint at 1 µM stood at 374 µL/min/mg. The molecule further returned a CLint scaled at 1 µM in data set [2] of 336 mL/min/kg. In addition, the “Lck[IC50]/Btk[IC50]” value at Lck worked out at 139.

In the case of `C=CC(=O)N(C)N1CCC[C@@H](n2nc(-c3ccc(Oc4ccccc4)cc3)c3c(N)ncnc32)C1` [Embodiment 8], the IC50 (usually the concentration at which inhibition is half-maximal) against Btk turned out to be 0.64 nM.

As for `C=CC(=O)N1CCCC(n2nc(/C=C/c3ccccn3)c3c(N)ncnc32)C1` (stereo not shown) [Embodiment 13, 1-(3-(4-amino-3-(2-2-pyridyl)vinyl-1H-pyrazolo[3,4-D]pyrimidine-1-yl)-piperidyl)-2-propylene-1-one], in data set [1], the “Remaining (*NCF = 60 min)” value worked out at 94.7%, the “Remaining (T = 60 min)” value was found to be 5.0%, the half-life at 1 µM worked out at 13.7 min and the microsomal CLint at 1 µM stood at 101 µL/min/mg. In data set [1], this molecule showed a CLint scaled at 1 µM of 182 mL/min/kg. At Btk, this molecule showed an IC50 of 0.46 nM. For the same molecule, the “LynA[IC50]/Btk[IC50]” value at LynA is 507. Also, in data set [2], the “Remaining (*NCF = 60 min)” value is given as 93.1%, the “Remaining (T = 60 min)” value is 14.0%, the half-life at 1 µM is 20.5 min and the microsomal CLint at 1 µM came out at 67.6 µL/min/mg. The CLint scaled at 1 µM in data set [2] was determined as 60.8 mL/min/kg. For the same molecule, the “Lck[IC50]/Btk[IC50]” value at Lck is given as 420.

Turning to `C=CC(=O)N1CCC[C@@H](n2nc(/C=C/c3ccc(Cl)cc3)c3c(N)ncnc32)C1` [Embodiment 14, 1-(3-(4-amino-3-(4-chlorophenylvinyl)-1H-pyrazolo[3,4-D]pyrimidine-1-yl)-piperidyl)-2-propylene-1-one], at Btk, the IC50 was determined as 5.82 nM.

In the case of `C=CC(=O)N1CCC[C@@H](n2nc(/C=C/c3cccc(Cl)c3)c3c(N)ncnc32)C1` [Embodiment 15, 1-(3-(4-amino-3-(3-chlorophenylvinyl)-1H-pyrazolo[3,4-D]pyrimidine-1-yl)-piperidyl)-2-propylene-1-one], 6.9 nM corresponded to half-maximal inhibition on Btk (IC50).

Molecule `C=CC(=O)N1CCCC(n2nc(/C=C/c3ccccc3Cl)c3c(N)ncnc32)C1` (stereo not shown) [Embodiment 16, 1-(3-(4-amino-3-(2-chlorophenylvinyl)-1H-pyrazolo[3,4-D]pyrimidine-1-yl)-piperidyl)-2-propylene-1-one] displayed an IC50 against Btk of 16.7 nM.

Turning to `C=CC(=O)N1CCC[C@@H](n2nc(-c3ccc(-c4noc(C)n4)cc3)c3c(N)ncnc32)C1` [Embodiment 22, 1-(3-(4-amino-3-(4-(5-methyl-1,2,4-oxadiazole-3-yl)phenyl)-1H-pyrazolo[3,4-D]pyrimidine-1-yl)-1-piperidyl)-2-propylene-1-one], on Btk, inhibition was half-maximal at 145 nM (IC50).

`C=CC(=O)N1CCC[C@@H](n2nc(-c3ccc(-c4noc(CCCCl)n4)cc3)c3c(N)ncnc32)C1` [Embodiment 24, 1-(3-(4-amino-3-(4-(5-(3-chloropropyl)-1,2,4-oxadiazole-3-yl)phenyl)-1H-pyrazolo[3,4-D]pyrimidine-1-yl)-1-piperidyl)-2-propylene-1-one] yielded an IC50 against Btk of 78 nM.

`C=CC(=O)NN1CCCC(n2c(=O)n(-c3ccc(Oc4ccccc4)cc3)c3c(N)ncnc32)C1` (stereo not shown) [Embodiment 29] returned an IC50 at Btk above 1000 nM.

Regarding `C=CC(=O)N(C)N1CCC[C@@H](n2c(=O)n(-c3ccc(Oc4ccccc4)cc3)c3c(N)ncnc32)C1` [Embodiment 30], on Btk, half-maximal inhibition (IC50) required 76.8 nM.

Regarding `C=CC(=O)N1CCCC(n2c(=O)n(-c3ccc(-c4noc(C)n4)cc3)c3c(N)ncnc32)C1` (stereo not shown) [Embodiment 34, 9-(1-allylpropionylpiperidine-3-yl)-6-amino-7-(4-(5-methyl-1,2,4-oxadiazole-3-yl)phenyl)-7,9-dihydro-8H-purine-8-one], at Btk, the IC50 is 209 nM.

Turning to `C=CC(=O)N1CCCC(n2c(=O)n(-c3ccc(-c4noc(C=C)n4)cc3)c3c(N)ncnc32)C1` (stereo not shown) [Embodiment 35, 9-(1-allylpropionylpiperidine-3-yl)-6-amino-7-(4-(5-vinyl-1,2,4-oxadiazole-3-yl)phenyl)-7,9-dihydro-8H-purine-8-one], the IC50 at Btk is 176 nM.

Turning to `C=CC(=O)N1CCC[C@@H](n2c(=O)n(-c3ccc(-c4noc(CCCCl)n4)cc3)c3c(N)ncnc32)C1` [Embodiment 36, 9-(1-allylpropionylpiperidine-3-yl)-6-amino-7-(4-(5-(3-chloropropyl)-1,2,4-oxadiazole-3-yl)phenyl)-7,9-dihydro-8H-purine-8-one], the IC50 at Btk is above 1000 nM.

Consider `C=CC(=O)NN1CCC[C@@H](n2c(=O)n(-c3ccc(C(=O)Nc4ccccn4)cc3)c3c(N)ncnc32)C1` [Embodiment 40, 4-(9-(1-acrylamidepiperidine-3-yl)-6-amino-8-oxo-8,9-dihydro-7H-purine-7-yl)-N-(pyridin-2-yl)benzamide], for which 23 nM corresponded to half-maximal inhibition on Btk (IC50).

With `C=CC(=O)NN1CCC[C@@H](n2nc(-c3ccc(Oc4ccccc4F)cc3)c3c(N)ncnc32)C1` [Embodiment 42], the 50% inhibitory concentration (IC50) at Btk was 0.9 nM.

In turn, `C=CC(=O)NN1CCCC(c2nc(-c3ccc(Oc4ccccc4)cc3)c3c(N)nccn23)C1` (stereo not shown) [Embodiment 51, N-(3-(8-amino-1-(4-phenoxyphenyl)imidazo[1,5-a]pyrazine-3-yl)-1-piperidyl) acrylamide] returned an IC50 against Btk of 5.1 nM.

As for `C=CC(=O)N1CCC[C@@H](n2nc(-c3ccc(Oc4ccccc4)cc3)c3c(N)ncnc32)C1` [Ibrutinib], in data set [3], the bioavailability (in general, the share of a dose that reaches the circulation, judged against a reference dose that is usually intravenous) is given as 2.9%.
